Experimental data from patent US10729643B2, “Methods for administration and methods for treating cardiovascular diseases with resiniferatoxin” (priority 2013, dated 2020).

Assays:
[1] = test system: non-infarcted LV and IVS walls of sham and CHF rats; assay: Cardiac fibrosis: picrosirius red staining and western blot of fibrotic markers; assay type: in vivo, rat
Description: (§1) This example illustrates the effects of RTX on cardiac fibrosis in sham and CHF rats. Considering that RTX-mediated reduction in LVEDP in CHF rats may be related to an improvement in cardiac compliance, we further evaluated cardiac fibrosis using picrosirus red staining and protein expression of two fibrotic markers (a smooth muscle actin and fibronectin) as well as their upstream activator, transforming growth factor (TGF) β receptor I in the non-infarcted LV and inter-ventricular septum (IVS) walls from sham and CHF rats treated with either vehicle or RTX. For histopathology, the rat heart was fixed in 10% phosphate buffered formalin, embedded in paraffin, and cut into 10 μm serial sections from apex to base. Picrosirius red staining was performed to detect myocardial fibrosis. Immunohistochemistry staining of cleaved caspase 3 (CC3) was also performed in paraffin sections from the same heart tissues which were used for picrosirius red staining experiments.

[2] = test system: myocardium of sham and CHF rats; assay: Cardiac apoptosis: TUNEL staining and cleaved caspase 3; assay type: in vivo, rat
Description: as §1
This example illustrates effects of RTX on cardiac apoptosis in sham and CHF rats. Cardiac remodeling includes hypertrophy, fibrosis and apoptosis. Based on the beneficial effects of RTX on cardiac hypertrophy and cardiac fibrosis in CHF rats, we further investigated the effect of RTX on cardiac apoptosis in sham and CHF rats. TUNEL staining was performed. Terminal deoxynucleotidyl transferase dUTP-mediated nick-end labeling (TUNEL) staining and analysis was performed to evaluate the effect of RTX on cardiac apoptosis. Representative photomicrographs are depicted in FIG. 6A.

post MI rats = assay: Long-term survival of post MI rats; assay type: in vivo, rat
Description: This example illustrates effects of RTX on the long-term survival rate of post MI rats. […] Over a 6 month period over 50% of vehicle—treated rats died. This contrasts with under 20% of RTX treated—rats.

IL-1 β = assay: Cardiac inflammatory cytokine IL-1β levels after MI; assay type: in vivo, rat; details: epicardial RTX during MI; 1 day or 1 week after MI
Description: This example illustrates local anti-inflammatory effects of RTX in the infarcted heart. Myocardial ischemia causes the production and release of several metabolites including bradykinin, prostaglandins and protons that stimulate cardiac sympathetic afferent nerve endings leading to increases in BP, HR and sympathetic nerve activity. As cardiac TRPV1-expressing sympathetic afferents also subserve a “dual sensory-efferent” function and release pro-inflammatory neuropeptides, we hypothesized that plasma extravasation and cardiac neuroinflammation follows myocardial ischemia. […] Inflammation in the infarct area may be due to tissue death whereas in peri-infarct and remote areas may be due to cardiac sympathetic afferent mediated neuroinflammation. This may explain why RTX prevented cardiac inflammation in non-infarct areas to a greater extent than in the infarct area.

rats = details: subcutaneous and epidural administration; cited from earlier work
[3] = test system: nerve endings in the skin; details: topical administration at the nerve endings in the skin; cited from earlier work
sham and CHF rats [4] = assay: In vivo left ventricular PV loop analysis
sham and CHF rats [5] = assay: Basal sympathetic tone (RSNA, CSNA, urinary NE) and arterial baroreflex function

Structure (SMILES): C=C(C)[C@]12C[C@@H](C)[C@@]34O[C@](Cc5ccccc5)(O[C@@H]1[C@@H]3C=C(COC(=O)Cc1ccc(O)c(OC)c1)C[C@]1(O)C(=O)C(C)=C[C@@H]41)O2 [RTX, resiniferatoxin]
- picrosirus red staining, alpha smooth muscle actin, fibronectin and TGF β receptor I expression ([1]; CHF rats): reduced
- picrosirus red staining, fibrotic markers and TGF β receptor I ([1]; sham rats): did not cause any significant change
- TUNEL-positive cells ([2]; LV infarct, LV peri-infarct, LV remote and IVS regions, CHF+RTX vs CHF+vehicle): markedly reduced
- increased cleaved caspase 3-positive cardiomyocytes ([2]; LV peri-infarct, LV remote and IVS regions, CHF rats, immunohistochemistry): largely prevented
- elevated protein expression of cleaved caspase 3 ([2]; LV remote and IVS regions, CHF rats): prevented
- difference in number of TUNEL-positive cells in the heart ([2]; sham+vehicle vs sham+RTX rats): no significant difference
- long-term (6 months) survival rates (post MI rats; CHF rats, epicardial RTX 50 μg/ml at the time of coronary ligation): markedly improved
- rats that died over a 6 month period (post MI rats; RTX treated post MI rats (vehicle: over 50%)): under 20%
- increased IL-1 β expression in peri-infarct and remote areas post MI (IL-1 β): markedly attenuated
- increased IL-1 β level in the infarct area (IL-1 β): partially prevented
- duration of thermal analgesia with no restoration of pain sensitivity (rats): over 7 days
- sensitivity to chemical pain stimulation [3]: long-lasting insensitivity
- basal contractile function (dP/dtmax, PRSW and ESPVR) (sham and CHF rats [4]; CHF rats): did not have a significant effect
- LV chamber size (sham and CHF rats [4]; CHF+RTX vs CHF+vehicle): reduction
- Tau and LVEDP (sham and CHF rats [4]; CHF+RTX vs CHF+vehicle): reduced
- dP/dtmin (sham and CHF rats [4]; CHF+RTX vs CHF+vehicle): increased
- ventricular stiffness as shown by the EDPVR (sham and CHF rats [4]; CHF+RTX vs CHF+vehicle): reduced stiffness
- contractile and relaxation parameters (sham and CHF rats [4]; sham rats): no effect
- average slope and Gainmax of arterial baroreflex control of HR and RSNA (sham and CHF rats [5]; CHF rats): significantly increased
- basal RSNA and CSNA (sham and CHF rats [5]; CHF rats): lowered
- minimum HR and RSNA of arterial baroreflex control (sham and CHF rats [5]; CHF rats): decreased
- urinary NE excretion (sham and CHF rats [5]; CHF+RTX vs vehicle treated rats): significantly reduced
- average slope, Gainmax, and minimum RSNA or HR of arterial baroreflex control (sham and CHF rats [5]; sham rats): no significant effects
